Results from patent US10000488B2, “Heterocyclic compound” (TAKEDA PHARMACEUTICAL COMPANY LIMITED, priority 2014, dated 2018).
Read-outs that look alike come from different tables or passages of the source.

Tests used:
[1] = molecular target: T1, RORγt (Homo sapiens, UniProt P51449); test: RORγt binding test using fluorescent-labeled synthetic ligand (TR-FRET); details: for inhibition at 1 µM: test compound 1 μM, read-out: binding inhibitory rate (%) of fluorescent-labeled synthetic ligand to RORγt at test compound 1 μM
T1 sequence (P51449 1-497 isoform P51449-2): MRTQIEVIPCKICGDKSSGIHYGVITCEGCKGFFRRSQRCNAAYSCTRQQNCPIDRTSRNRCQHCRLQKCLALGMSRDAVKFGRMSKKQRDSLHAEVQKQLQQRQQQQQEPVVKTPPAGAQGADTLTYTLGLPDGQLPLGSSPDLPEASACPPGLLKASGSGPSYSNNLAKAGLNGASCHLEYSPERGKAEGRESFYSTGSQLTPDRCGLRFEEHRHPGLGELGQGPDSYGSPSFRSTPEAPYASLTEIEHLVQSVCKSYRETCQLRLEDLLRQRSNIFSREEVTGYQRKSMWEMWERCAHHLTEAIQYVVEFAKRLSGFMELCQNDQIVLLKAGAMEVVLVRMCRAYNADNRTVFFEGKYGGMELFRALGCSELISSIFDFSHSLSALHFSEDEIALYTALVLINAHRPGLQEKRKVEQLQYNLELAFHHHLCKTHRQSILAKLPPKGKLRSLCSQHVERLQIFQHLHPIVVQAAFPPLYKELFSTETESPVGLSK
Experimental: RORγt Binding Test Using Fluorescent-Labeled Synthetic Ligand
The binding activity of the test compound to RORγt was measured by a time resolved fluorescence resonance energy transfer (TR-FRET) utilizing histidine-tagged RORγt, fluorescent-labeled synthetic ligand, and terbium-labeled anti-histidine tag antibody (Invitrogen). First, a test compound diluted with an assay buffer (20 mM Tris-HCl (pH 7.5), 100 mM NaCl, 1 mM DTT, 0.1% BSA) was added to a 384 well plate by 3 μL. Then, RORγt diluted with an assay buffer to 240 nM was added by 3 μL, after which fluorescent-labeled synthetic ligand diluted with the assay buffer to 12 μM was added by 3 μL, and the mixture was stood at room temperature for 20 min. Thereafter, a terbium-labeled anti-histidine tag antibody diluted with the assay buffer to 8 nM was added by 3 μL. The mixture was stood at room temperature for 20 min, and fluorescence intensity (excitation wavelength 320 nm, fluorescence wavelength 520 nm, delay time 100 microseconds) was measured by Envision (PerkinElmer).

[2] = molecular target: T1, RORγt; test: Jurkat reporter test (human IL-17 ROR response element luciferase reporter, RORγt vector); assay type: cell-based; details: Jurkat cells; for inhibition at 3 µM: test compound 3 μM, read-out: luminescence level inhibitory rate (%) at test compound 3 μM
Experimental: The Jurkat cells used for the reporter test were cultured in a culture medium (RPMI (Invitrogen), 10% FCS (AusGeneX), 100 U/mL penicillin, 100 μg/mL streptomycin). On the day of the test, 4×10^7 cells were recovered by a centrifugal operation (1000 rpm, for 5 min) and suspended in PBS (phosphate buffered saline) (Invitrogen). Thereafter, the cells were recovered again by a centrifugal operation, and suspended in 2 mL of R buffer (NEON transfection kit, Invitrogen). […] Gene transfer was performed by Electroporation apparatus (NEON, Invitrogen) under the conditions of pulse voltage 1350 V, interval 10 milliseconds, number of times 3. The cells after gene transfer were suspended in 40 mL of a reaction medium (RPMI, 10% Lipid reduced FCS (HyClone), 10 mM HEPES (pH 7.5), 100 U/mL penicillin, 100 μg/mL streptomycin, 5 μM lovastatin), and plated in a 96 well plate by 90 μL. A test compound diluted with the reaction medium was added by 10 μL, and the cells were cultured overnight in an incubator. Bright-Glo (Promega) was added by 100 μL, and the mixture was stirred at room temperature for 10 min, and the luminescence level was measured by Envision (PerkinElmer).

[3] = molecular target: T1, RORγt; test: Cofactor recruitment test (Alpha Screen, biotinylated SRC-1 peptide); assay type: biochemical; details: read-out: signal value inhibitory rate (%) at test compound 1 μM
Experimental: Cofactor Recruitment Test
Cofactor recruitment test was performed by Alpha Screen (Histidine Detection Kit, PerkinElmer) method. First, a test compound was diluted with an assay buffer (50 mM Tris-HCl (pH 7.5), 50 mM KCl, 1 mM DTT, 0.1% BSA) and added to a 384 well plate by 5 μL. […] The mixture was stood in a dark place for 1 hr, and the signal value was measured by Envision (PerkinElmer).

SMILES | inhibition at 1 µM [1] | inhibition at 3 µM [2] | inhibition at 1 µM [3] | binding inhibitory rate (%) of fluorescent-labeled synthetic ligand to RORγt at test compound 1 μM ([1]; 1 µM) | binding inhibitory rate (%) of fluorescent-labeled synthetic ligand to RORγt at test compound 1 μM [1] | luminescence level inhibitory rate (%) at test compound 3 μM [2]
Cc1ccc(C(=O)N[C@@H]2CCCN(C(=O)Nc3ccc4c(c3)c(=O)n(CC3CC3)c(=O)n4C(C)C)C2)s1 [Example 242, (3R)-N-(3-(cyclopropylmethyl)-1-isopropyl-2,4-dioxo-1,2,3,4-tetrahydroquinazolin-6-yl)-3-(((5-methyl-2-thienyl)carbonyl)amino)piperidine-1-carboxamide] | 102% | 103% | 105% | – | – | –
COc1ccc2c(c1)C(=O)N([C@@H]1CCCN(C(=O)Nc3cc4c(=O)n(CC5CC5)c(=O)n(C(C)C)c4cc3F)C1)C2 [Example 303, (3R)—N-(3-(cyclopropylmethyl)-7-fluoro-1-isopropyl-2,4-dioxo-1,2,3,4-tetrahydroquinazolin-6-yl)-3-(6-methoxy-1-oxo-1,3-dihydro-2H-isoindol-2-yl)piperidine-1-carboxamide] | 102% | 102% | 107% | – | – | –
CC(C)n1c(=O)n(CC2CC2)c(=O)c2cc(NC(=O)N3CCO[C@@H](C(=O)Nc4ccc(C#N)c(F)c4)C3)ccc21 [Example 102, (2R)-N^2-(4-cyano-3-fluorophenyl)-N^4-(3-(cyclopropylmethyl)-1-isopropyl-2,4-dioxo-1,2,3,4-tetrahydroquinazolin-6-yl)morpholine-2,4-dicarboxamide] | 101% | 104% | 102% | – | – | –
CC(C)n1c(=O)n(CC2CC2)c(=O)c2cc(NC(=O)N3CCOC(C(=O)Nc4ccc(C#N)c(F)c4)C3)ccc21 (stereo not shown) [Example 176, N^2-(4-cyano-3-fluorophenyl)-N^4-(3-(cyclopropylmethyl)-1-isopropyl-2,4-dioxo-1,2,3,4-tetrahydroquinazolin-6-yl)morpholine-2,4-dicarboxamide] | 101% | 100% | 111% | – | – | –
CC(C(F)F)n1c(=O)n(CC2CC2)c(=O)c2cc(NC(=O)N3CCCC(n4cnc5cc(C#N)ccc5c4=O)C3)c(F)cc21 [Example 374, (3R)-3-(7-cyano-4-oxoquinazoline-3(4H)-yl)-N-(3-(cyclopropylmethyl)-1-(1,1-difluoropropan-2-yl)-7-fluoro-2,4-dioxo-1,2,3,4-tetrahydro-quinazolin-6-yl)piperidine-1-carboxamide (one stereoisomer, quinazolinedione: derived from tR2)] | – | – | – | 102% | – | –
CC(C)n1c(=O)n(CC2CC(F)(F)C2)c(=O)c2cc(NC(=O)N3CCO[C@@H](C(=O)Nc4cc(Cl)c(C#N)cc4F)C3)c(F)cc21 [Example 351, (2R)—N^2-(5-chloro-4-cyano-2-fluorophenyl)-N^4-(3-((3,3-difluorocyclobutyl)methyl)-7-fluoro-1-isopropyl-2,4-dioxo-1,2,3,4-tetrahydroquinazolin-6-yl)morpholine-2,4-dicarboxamide] | 101% | 106% | 108% | – | – | –
CC(C)n1c(=O)n(CC2CC2)c(=O)c2cc(NC(=O)N3CCCC(NC(=O)c4ccc(C#N)cc4)C3)ccc21 (stereo not shown) [Example 180, 3-((4-cyanobenzoyl)amino)-N-(3-(cyclopropylmethyl)-1-isopropyl-2,4-dioxo-1,2,3,4-tetrahydroquinazolin-6-yl)piperidine-1-carboxamide] | 102% | 101% | 111% | – | – | –
CC(C)n1c(=O)n(CC2CC2)c(=O)c2cc(NC(=O)N3CCC[C@@H](NC(=O)c4ccc(C#N)nc4)C3)ccc21 [Example 223, 6-cyano-N-((3R)-1-((3-(cyclopropylmethyl)-1-isopropyl-2,4-dioxo-1,2,3,4-tetrahydroquinazolin-6-yl)carbamoyl)piperidin-3-yl)nicotinamide] | 102% | 102% | 111% | – | – | –
CC(C)n1c(=O)n(CC2CC2(F)F)c(=O)c2cc(NC(=O)N3CCOC(C(=O)Nc4ccc(C#N)c(Cl)c4)C3)c(F)cc21 (single isomer, unassigned) [Example 366, (2R)—N^2-(3-chloro-4-cyanophenyl)-N^4-(3-(((1R or 1S)-2,2-difluorocyclopropyl)methyl)-7-fluoro-1-isopropyl-2,4-dioxo-1,2,3,4-tetrahydroquinazolin-6-yl)morpholine-2,4-dicarboxamide (one stereoisomer, quinazolinedione: derived from tR1)] | 102% | 108% | 105% | – | – | –
CC(C(F)F)n1c(=O)n(CC2CC2)c(=O)c2cc(NC(=O)N3CCCC(n4cnc5cc(C#N)ccc5c4=O)C3)c(F)cc21 [Example 372, (3R)-3-(7-cyano-4-oxoquinazoline-3(4H)-yl)-N-(3-(cyclopropylmethyl)-1-(1,1-difluoropropan-2-yl)-7-fluoro-2,4-dioxo-1,2,3,4-tetrahydro-quinazolin-6-yl)piperidine-1-carboxamide (one stereoisomer, quinazolinedione: derived from tR1)] | 101% | – | – | – | – | –
CC(C(F)F)n1c(=O)n(CC2CC2)c(=O)c2cc(NC(=O)N3CCOC(C(=O)Nc4ccc(C#N)c(Cl)c4)C3)c(F)cc21 [Example 371, (2R)-N^2-(3-chloro-4-cyanophenyl)-N^4-(3-(cyclopropylmethyl)-1-(1,1-difluoropropan-2-yl)-7-fluoro-2,4-dioxo-1,2,3,4-tetrahydro-quinazolin-6-yl)-morpholine-2,4-dicarboxamide (one stereoisomer, quinazolinedione: derived from tR1)] | 95% | – | – | – | – | –
CC(C(F)F)n1c(=O)n(CC2CC2)c(=O)c2cc(NC(=O)N3CCOC(C(=O)Nc4ccc(C#N)c(Cl)c4)C3)c(F)cc21 [Example 373, (2R)-N^2-(3-chloro-4-cyanophenyl)-N^4-(3-(cyclopropylmethyl)-1-(1,1-difluoropropan-2-yl)-7-fluoro-2,4-dioxo-1,2,3,4-tetrahydro-quinazolin-6-yl)morpholine-2,4-dicarboxamide (one stereoisomer, quinazolinedione: derived from tR2)] | – | – | – | 97% | – | –
CC(C)n1c(=O)n(CC2CC2)c(=O)c2cc(NC(=O)N3CCC(F)(F)C(n4cnc5cc(C#N)ccc5c4=O)C3)c(F)cc21 (stereo not drawn) [Example 375, 3-(7-cyano-4-oxoquina-zoline-3(4H)-yl)-N-(3-(cyclopropylmethyl)-7-fluoro-1-isopropyl-2,4-dioxo-1,2,3,4-tetrahydro-quinazolin-6-yl)-4,4-difluoropiperidine-1-carboxamide (one stereoisomer, piperidine: derived from tR1)] | 95% | – | – | – | – | –
CC(C)n1c(=O)n(CC2CC2(F)F)c(=O)c2cc(NC(=O)N3CCCC(n4cnc5cc(C#N)ccc5c4=O)C3)c(F)cc21 (single isomer, unassigned) [Example 369, (3R)-3-(7-cyano-4-oxoquinazoline-3(4H)-yl)-N-(3-(((1R or 1S)-2,2-difluorocyclopropyl)methyl)-7-fluoro-1-isopropyl-2,4-dioxo-1,2,3,4-tetrahydroquinazolin-6-yl)piperidine-1-carboxamide (one stereoisomer, quinazolinedione: derived from tR2)] | – | – | – | – | 102% | 110%
